Test results from patent US6716628B2, “Chondrogenesis promoters and indolin-2-one derivatives” (Chugai Seiyaku Kabushiki Kaisha, priority 1999, dated 2004).

How the values were obtained:
[1] = tested on: common mouse chondrocyte and adipocyte precursor cell line (CL-1); experiment: Uptake of 35S-labeled sulfuric acid into CL-1; type: cell-based; settings: 10 μmol/L (A and F also 1 or 5 μmol/L), 48 h culture
[2] = tested on: rat knee joints; experiment: Chondrogenesis promoting effect with administration into rat knee joints; type: in vivo; settings: 1 mmol/L, 50 μL per day into right knee joint for 3 weeks
Protocol: A 27G injection needle and 1 mL syringe (both by Terumo Corp.) were used to administer 1 mmol/L of “compound A” (dissolved in 50% DMSO dimethylsulfoxide)-physiological saline solution; DMSO by Junsei Chemical Corp., physiological saline by Otsuka Pharmaceutical Corp.) into the right knee joint of 10-week-old male SD rats (Nihon Charles River Corp.) at a dosage of 50 μL per day for 3 weeks.
Another test group was administered 50% DMSO-physiological saline (by Junsei Chemical Corp. and Otsuka Pharmaceutical Corp., respectively) in the same manner as a vehicle control.
After 3 weeks of daily administration, the rats were autopsied, and the distance between lateral and medial attachment sites of collateral ligament of the right femur was measured with calipers (Mitsutoyo Corp.) to determine the width of the femoral knee joint. Then, in the same manner as Example 1, tissue samples were prepared and stained with 0.3% Safranin O (Merck Co., Ltd.) and observed under a microscope (magnification: 10× object lens, product of Nihon Kogaku Corp.).

[3] = tested on: healthy rats (auricula, trachea, sternum, femoral/crural knee joint, lumbar spine disk cartilage); experiment: Chondrogenesis promoting effect with oral administration to healthy rats; type: in vivo, rat; settings: oral 2 g/kg/day for 4 weeks, 6-week-old male SD rats, vs 3% gum Arabic vehicle; histology
Excerpt: “Compound A” obtained in Synthesis Example 1 above was suspended in a 3% gum Arabic solution and orally administered to 6-week-old male SD rats (Nihon SLC Corp./Nihon Charles River Corp.) at a dosage of 2 g/kg/day for 4 weeks.
Each rat was then autopsied, the auricula, trachea, sternum, femoral/crural knee joint and lumbar spine (disk) were immersed for one week in 20% neutral buffer formalin (Wako Pure Chemical Industries, Co., Ltd.) and fixed, the sternum, femoral/crural knee joint and lumbar spine (disk) were then demineralized for 2 weeks with a 20% EDTA-4Na solution (pH 7.4, Wako Pure Chemical Industries), and observation sites were trimmed with a razor (Feather Co., Ltd.). Observation sites were trimmed from the auricula and trachea with a razor without demineralization.
Each of the trimmed tissue samples was prepared into a paraffin embedded block using an automatic embedding apparatus (Sakura Corp.) and paraffin (equivalent mixture of products by Kokusan Kagaku Corp. and Fisher Scientific Corp.). Here, a paraffin automatic dispensing embedding center (Miles Scientific Corp.) was used to fix each paraffin block in a tissue sample cassette (TISSUE-TEK Corp.)
The paraffin block was cut into 2 μm-thick sections using a microtome (Daiwa Optical Instruments Corp.) and microtome knife (Feather Co., Ltd.), and then attached onto slide glass (Matsunami Glass Corp.) and dried. […]

[4] = tested on: rabbit osteoarthritis model; experiment: Pathology suppressing effect in a rabbit osteoarthritis model; type: in vivo; settings: 3.0 mmol/L, vs solvent alone
Protocol: Rabbit osteoarthritis model was prepared using 12-week-old male NZW rabbits (Kitayama Labes Co., Ltd.), and performing partial menisectomy in right knee, and excision of the lateral collateral ligament and sesamoid ligament, according to the method of Colombo et al. (Arthritis Rheum. 26(7):875-886, 1983). Beginning on the 7th day after the operation, 500 μL of a 50% dimethylsulfoxide (DMSO) physiological saline solution (DMSO: Junsei Chemical Corp., physiological saline: Otsuka Pharmaceutical Corp.) or 3.0 mmol/L of compound A solution was intraarticularly administered once a day into the right knee joint for a period of 3 weeks. The daily dosage of compound A was 816.8 μg.
On the day following the day of final administration, the right femoral distal and crural proximal sections were taken, and the femur was immersed overnight in 2% paraformaldehyde-2.5% glutaraldehyde fixing solution (both by Wako Pure Chemical Industries) for fixation, while the crus was immersed for one week in 20% neutral buffered formalin (Wako Pure Chemical Industries) for fixation.
After post-fixation of the femoral distal section with 1% osmium solution (Wako Pure Chemical Industries), it was dipped in an increasing ethanol series for dehydrogenation, and then substituted with isoamyl acetate and subsequently dried with a critical point drying apparatus (Hitachi Co., Ltd.). The dried tissue surface was coated with gold using an ion sputter coating apparatus (Eiko Corp.), and the femoral condyle cartilage surface was observed using a scanning electron microscope (Hitachi Co., Ltd.) (FIGS. 15A and 15B). The area of the damaged sections of the articular cartilage in the electron photomicrograph was measured using IPAP image analysis software (Sumika Technoservice Co., Ltd.), and judged on the scale shown in Table 11 below.
The proximal region of tibia was trimmed with a band saw (EXAKT Corp.) and then demineralized for 4 weeks with 20% EDTA-4Na solution (pH 7.4, Wako Pure Chemical Industries). […]

[5] = 500 μL intraarticular once a day for 3 weeks from day 7 after operation

For `CCOC(CN1C(=O)[C@](CC(=O)Nc2ccc(C)cc2)(NC(=O)Nc2ccc(C)cc2)c2ccccc21)OCC` [Compound A, (+)-1-(2,2-diethoxyethyl)-3-((4-methylphenyl)aminocarbonylmethyl)-3-(N′-(4-methylphenyl)ureido)indolin-2-one], the “differentiation of CL-1 to adipocytes” value [1] was “clearly suppress”, the “femoral knee joint width” value ([2]; 10-week-old male SD rats, vs vehicle control) was “significantly larger” and the “histological observation of femoral knee joint (Safranin O)” value ([2]; rats) was “Safranin O-positive accelerated formation of cartilage tissue”. The “hyaline cartilage formation (auricula, trachea, sternum, knee joint, lumbar spine disk)” value [3] was “accelerated hyaline cartilage formation in all of the organs”, the “medium grade lesion area of articular cartilage (scanning electron microscope)” value [4, 5] was “significantly smaller area of damage” and the “total lesion area of articular cartilage (scanning electron microscope)” value [4, 5] was “significantly smaller area of damage”. The “total histological scores, except for the loss of superficial layer” value ([4]; 500 μL intraarticular once a day for 3 weeks, Safranin O stained tibia sections) was “significantly lower”.
